Data taken from patent US7741472B2, “Polynucleotide containing a phosphate mimetic” (Roche Diagnostics Operations, Inc., priority 2005, dated 2010).
Strand notation (5' to 3'): a small letter for the sugar, then the base; units joined by * are phosphorothioate-linked, units joined directly phosphodiester-linked; [ ] holds rarer units or linkages, { } end groups; capitals alone tell only the bases. [RhoB] = phosphoramidate linkage P=N-S(O)2-rhodamine-B replacing P=O; d = 2'-deoxy (DNA); {P} = phosphate

How the values were obtained:
human Factor V DNA = test: Real time PCR with modified primers (crossing point); type: biochemical; details: LIGHTCYCLER 1.2, primer combinations SEQ ID NO: 1 / SEQ ID NO: 2, 640 nm channel
Experimental: A quantitative real time PCR of human Factor V DNA was carried out on a LIGHTCYCLER 1.2 instrument (Roche Diagnostics GmbH) in order to analyse the effect of phosphate mimetics on primer elongation. The P═N-pPh-NAc mimetic which was introduced at different positions of a primer pair used for amplification of human Factor V DNA. The modified primers were, synthesized according to example 4. Purification was done by the Reversed Phase chromatography of example 3 in the Trityl on mode. Detritylation was performed by treating with 80% acetic acid for 20 min.
This primers were used in combination with a pair of fluorescein/LIGHTCYCLER Red 640 FRET hybridization probes according to example 6. The Fluorescein probe and the 5′ LIGHTCYCLER Red 640 probe (SEQ ID NO: 3 and 4) were kept constant. Various combinations of modified and unmodified primers were tested. As reference unmodified primers were used. The effect on the crossing point which is a measure for the amplification efficiency was evaluated.
The real time monitoring was carried out over 45 cycles using the 2nd derivative threshold method in which, the fluorescence signal was measured in a detection channel that is specific for the LIGHTCYCLER Red 640 emission (at 640 nm) and the arithmetic background correction mode was used to normalize the initial signal.
The absolute fluorescence signals are measured as above in the 640 nm channel and subsequently the first derivative was calculated from this. The crossing points are shown in the following table as a measure for the amplification efficiency when using different modified primers.

factor V DNA = test: Real time PCR of factor V DNA with fluorescein/lissamine FRET hybridization probes; type: biochemical; details: LIGHTCYCLER 2.0, 610 nm channel, unmodified fluorescein donor probe
Experimental: Primers were used in combination with a pair of fluorescein/lissamine FRET hybridization probes where Lissamine (rhodamineB) acted as a FRET acceptor. Quantification curves were recorded and the cp value was determined as a function of the concentration of the target nucleic acid.
(§1) A teal time PCR and melting curve analysis were carried out according to example 6 for the amplification of 10^4 and 10^6 copies of a factor V DNA fragment. A fluorescein donor probe according to example 6 (SEQ ID NO: 4) which was not further modified and a FRET acceptor probe according to example 7b (SEQ ID NO: 3) were used for this.
The fluorescence signal was measured in the 610 nm detection channel. The 610/530 background correction mode was used to normalize the raw signal. A cp value of 22 was determined for 10^6 copies and a cp of 26 was determined for 10^4 copies.

[1] = test system: factor V DNA fragment, wild type; test: Melting curve analysis with lissamine acceptor probe, wild type; type: binding; details: 10^6 copies
Experimental: as §1
(§2) The melting point for the wild type was determined as 64.69° C. and 56.24° C. was determined as the melting point for the mutant (10^6 copies).

[2] = test system: factor V DNA fragment, mutant; test: Melting curve analysis with lissamine acceptor probe, mutant; type: binding; details: 10^6 copies
Experimental: as §1, §2

Row | Substance | Cp (crossing point, measure for the amplification efficiency) (human Factor V DNA) | cp value (factor V DNA; 10^4 copies) | cp value (factor V DNA; 10^6 copies) | melting point for the wild type [1] | melting point for the mutant [2]
1 | 5′ GAGAGACATCGCCTCTGGGCTA / 5′ TGTTATCACACTGGTGCTAA: unmodified primer pair SEQ ID NO: 1 and 2, used as reference (DNA 1 GAGAGACATCGCCTCTGGGCTA; DNA 2 TGTTATCACACTGGTGCTAA; unmodified DNA) [reference compound] | 20.36 |  |  |  | 
2 | 5′ GAGAGACATCGCCTCTGGGCTA / 5′ TGT TAT CAC ACT p1GGT GCT AA: primer combination; p1 is a P = N-pPh-NAc mimetic | 21.36 |  |  |  | 
3 | 5′ GAGAGACATCGCCTCTGGGCT p1A / 5′ TGTTATCACACTGGTGCTAA: primer combination; p1 is a P = N-pPh-NAc mimetic | 20.80 |  |  |  | 
4 | FRET acceptor probe according to example 7b: SEQ ID NO: 3 FRET acceptor probe; p* = P = NS(O)2-rhodamine-B (DNA dA[RhoB]dGdGdGdAdTdCdTdGdCdTdCdTdTdAdCdAdGdAdTdTdAdGdAdAdGdTdAdGdTdCdCdTdAdTdT-{P}) |  | 26 | 22 | 64.69 °C | 56.24 °C
